Consider 13 compounds from patent US20240246977A1, “DEGRADATION OF BRUTON'S TYROSINE KINASE (BTK) BY CONJUGATION OF BTK INHIBITORS WITH E3 LIGASE LIGAND AND METHOD OF USE” (BeiGene Switzerland GmbH, priority 2021, published 2024).

The subject of experiment [1] is HEK-293 cells. As to the kind of experiment: HEK-293 cytotoxicity detection (CellTiter-Glo). In kind it is cell-based. The following applies: Homo sapiens, 72 h, 72 h incubation, CellTiter-Glo luminescence, read-out: HEK293. As to the method: HEK-293 cells were treated with compounds diluted in 0.2% DMSO, dilution was done according to the following protocol: (1) making 500× stock solution in DMSO from 5 mM by 4-fold dilution, total 8 doses were included; (2) making 2× solution in cell culture medium by transferring 0.5 ul 500× stock solution into 125 ul medium; (3) adding 50 ul of 2× solution to cells for incubation of 72 h.
25 μl of the CellTiter-Glo®Reagent [(Promega)—Cat No. G7572] was added to each well in the 96-well plate. The contents were mixed for 2 minutes on an orbital shaker to induce cell lysis. The plate was then allowed to incubate at room temperature for 10 minutes to stabilize luminescent signal. Luminescence was recorded on BMG PheraStar with luminescence protocol.
The inhibition percentage of the compound was calculated by the following equation: Inhibition percentage of Compound=100−100×(Signal-low control)/(High control-low control), wherein signal=each test compound group
High control=Cell group with added DMSO and without compound, indicating cells proliferation with no inhibition;
Imax is the maximum percentage of inhibition.
The IC50 value of a compound can be obtained by fitting the following equation
(§1) Wherein, X and Y are known values, and IC50, Hillslope, Top and Bottom are the parameters obtained by fitting with software. Y is the inhibition percentage (calculated from the equation), X is the concentration of the compound; IC50 is the concentration of the compound when the 50% inhibition is reached. The smaller the IC50 value is, the stronger the inhibitory ability of the compound is. Vice versa, the higher the IC50 value is, the weaker the ability the inhibitory ability of the compound is; Hillslope represents the slope of the fitted curve, generally around 1*; Bottom represents the minimum value of the curve obtained by data fitting, which is generally 0%±20%; Top represents the maximum value of the curve obtained by data fitting, which is generally 100%±20%. The experimental data were fitted by calculating and analyzing with Dotmatics data analysis software.

In experiment [2] the target is BTK (Homo sapiens, UniProt Q06187). As to the kind of experiment: BTK cell degradation in TMD-8 cells, HTRF assay. It is filed as cell-based. On the set-up: endogenous in cells; host or cells: TMD-8 cells. Particulars: 6 h treatment, IC50 (DC50) of BTK degradation. As to the method:
TMD-8 cells were treated with compounds diluted in 0.2% DMSO, dilution was done according to the following protocol: (1) making 500× stock solution in DMSO from 1 mM by 6-fold dilution, total 8 doses were included; (2) making 2× solution in cell culture medium by transferring 0.5 μl 500× stock solution into 125 μl medium; (3) adding 15 μl of 2× solution to cells for incubation of 6 h.
After 6 h treatment, 10 μl 14×lysis buffer was added to each well; the plate was sealed and incubated for 30 min at room temperature on a plate shaker; Once the cells was lysed, 16 μL of cell lysate were transferred to a PE 384-well HTRF detection plate; 4 μL of pre-mixed HTRF antibodies were added to each well; the plate was covered with a plate sealer, and then spinned at 1000 rpm for 1 min, then incubated overnight at room temperature; the results were read on BMG PheraStar with HTRF protocol (337 nm-665 nm-620 nm).
The inhibition (degradation) percentage of the compound was calculated by the following equation: Inhibition percentage of Compound=100−100×(Signal-low control)/(High control-low control), wherein signal=each test compound group
High control=Cell group with added DMSO and without compound, indicating microplate readings without BTK degradation;
Dmax is the maximum percentage of inhibition (degradation).
The IC50 (DC50) value of a compound can be obtained by fitting the following equation
Y=Bottom+(TOP−Bottom)/(1+((IC50/X)^hillslope))
as §1, with “wherein,” for “Wherein,”

The structures appear in SMILES notation.

BTK, sequence (Q06187 whole entry): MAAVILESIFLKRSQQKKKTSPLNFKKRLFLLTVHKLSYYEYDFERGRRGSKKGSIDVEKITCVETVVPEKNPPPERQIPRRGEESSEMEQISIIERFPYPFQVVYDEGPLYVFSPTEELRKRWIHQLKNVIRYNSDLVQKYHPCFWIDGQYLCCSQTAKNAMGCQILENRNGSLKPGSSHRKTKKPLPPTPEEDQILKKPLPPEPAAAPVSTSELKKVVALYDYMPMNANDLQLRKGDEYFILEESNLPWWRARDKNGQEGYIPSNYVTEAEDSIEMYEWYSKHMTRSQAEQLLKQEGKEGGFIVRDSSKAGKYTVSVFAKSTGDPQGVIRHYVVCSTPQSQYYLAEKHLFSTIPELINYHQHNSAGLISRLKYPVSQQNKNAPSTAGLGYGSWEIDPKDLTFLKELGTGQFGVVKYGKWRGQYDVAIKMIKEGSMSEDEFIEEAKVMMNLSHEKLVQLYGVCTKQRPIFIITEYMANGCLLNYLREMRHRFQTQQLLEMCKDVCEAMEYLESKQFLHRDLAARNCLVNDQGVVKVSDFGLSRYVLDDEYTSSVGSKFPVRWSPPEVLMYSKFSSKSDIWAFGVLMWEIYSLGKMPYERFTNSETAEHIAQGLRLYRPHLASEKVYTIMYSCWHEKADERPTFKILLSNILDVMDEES

What is called DC50 is the concentration giving 50% degradation. Higher therefore signals degradation only at high concentration. In the case of `NC(=O)c1c(-c2ccc(Oc3ccccc3)cc2)nn2c1Nc1ccc(C(=O)NC3CCN(CC4CCN(c5cc6c(cc5F)C(=O)N(C5CCC(=O)NC5=O)C6=O)CC4)CC3)cc1CC2` (centres unmarked) [Example A10, N^7-(1-((1-(2-(2,6-dioxopiperidin-3-yl)-6-fluoro-1,3-dioxoisoindolin-5-yl)piperidin-4-yl)methyl)piperidin-4-yl)-2-(4-phenoxyphenyl)-9,10-dihydro-4H-benzo[d]pyrazolo[1,5-a][1,3]diazepine-3,7-dicarboxamide], the IC50 in experiment [1] worked out at 0.121 µM. In experiment [2], this compound had a DC50 of 0.00175 µM.
For `NC(=O)c1c(-c2ccc(Oc3ccccc3)cc2)nn2c1Nc1ccc(NC(=O)C3CCN(c4cccc5c4C(=O)N(C4CCC(=O)NC4=O)C5=O)CC3)cc1CC2` (centres unmarked) [Example A11, 7-(1-(2-(2,6-dioxopiperidin-3-yl)-1,3-dioxoisoindolin-4-yl)piperidine-4-carboxamido)-2-(4-phenoxyphenyl)-9,10-dihydro-4H-benzo[d]pyrazolo[1,5-a][1,3]diazepine-3-carboxamide], in that order: 0.826 µM and 0.00571 µM.
For `NC(=O)c1c(-c2ccc(Oc3ccccc3)cc2)nn2c1Nc1ccc(C(=O)N[C@H]3CC[C@H](CN4CCN(c5cc6c(cc5F)C(=O)N(C5CCC(=O)NC5=O)C6=O)CC4)CC3)cc1CC2` (some centres unmarked) [Example A12, N^7-((1r,4r)-4-((4-(2-(2,6-dioxopiperidin-3-yl)-6-fluoro-1,3-dioxoisoindolin-5-yl)piperazin-1-yl)methyl)cyclohexyl)-2-(4-phenoxyphenyl)-9,10-dihydro-4H-benzo[d]pyrazolo[1,5-a][1,3]diazepine-3,7-dicarboxamide], in that order: 0.396 µM and 0.00458 µM.
For `NC(=O)c1c(-c2ccc(Oc3ccccc3)cc2)nn2c1Nc1ccc(C(=O)N3CCN(CC4CCN(c5ccc6c(c5)C(=O)N(C5CCC(=O)NC5=O)C6=O)CC4)CC3)cc1CC2` (centres unmarked) [Example A13, 7-(4-((1-(2-(2,6-dioxopiperidin-3-yl)-1,3-dioxoisoindolin-5-yl)piperidin-4-yl)methyl)piperazine-1-carbonyl)-2-(4-phenoxyphenyl)-9,10-dihydro-4H-benzo[d]pyrazolo[1,5-a][1,3]diazepine-3-carboxamide], in that order: 0.167 µM and 0.00279 µM.
`NC(=O)c1c(-c2ccc(Oc3ccccc3)cc2)nn2c1Nc1ccc(C(=O)N3CCC(CN4CCN(c5cc6c(cc5F)C(=O)N(C5CCC(=O)NC5=O)C6=O)CC4)CC3)cc1CC2` (centres unmarked) [Example A14, 7-(4-((4-(2-(2,6-dioxopiperidin-3-yl)-6-fluoro-1,3-dioxoisoindolin-5-yl)piperazin-1-yl)methyl)piperidine-1-carbonyl)-2-(4-phenoxyphenyl)-9,10-dihydro-4H-benzo[d]pyrazolo[1,5-a][1,3]diazepine-3-carboxamide]: the IC50 in experiment [1] was 0.509 µM. This compound also had a DC50 in experiment [2] of 0.00322 µM.
For `NC(=O)c1c(-c2ccc(Oc3ccccc3)cc2)nn2c1Nc1cc(NC(=O)C3CCN(CC4CCN(c5ccc6c(c5)C(=O)N(C5CCC(=O)NC5=O)C6=O)CC4)CC3)ccc1CC2` (centres unmarked) [Example A18, 6-(1-((1-(2-(2,6-dioxopiperidin-3-yl)-1,3-dioxoisoindolin-5-yl)piperidin-4-yl)methyl)piperidine-4-carboxamido)-2-(4-phenoxyphenyl)-9,10-dihydro-4H-benzo[d]pyrazolo[1,5-a][1,3]diazepine-3-carboxamide], in that order: 2.51 µM and 0.00962 µM.
On the same counts, the results for `NC(=O)c1c(-c2ccc(Oc3ccccc3)cc2)nn2c1Nc1cc(C(=O)N3CCC(CN4CCN(c5cc6c(cc5F)C(=O)N(C5CCC(=O)NC5=O)C6=O)CC4)CC3)ccc1CC2` (centres unmarked) [Example A20, 6-(4-((4-(2-(2,6-dioxopiperidin-3-yl)-6-fluoro-1,3-dioxoisoindolin-5-yl)piperazin-1-yl)methyl)piperidine-1-carbonyl)-2-(4-phenoxyphenyl)-9,10-dihydro-4H-benzo[d]pyrazolo[1,5-a][1,3]diazepine-3-carboxamide] are above 10 µM and 0.0134 µM.
On the same counts, the results for `NC(=O)c1c(-c2ccc(Oc3ccccc3)cc2)nn2c1Nc1ccc(N3CCN(CC4CCN(c5ccc(N6CCC(=O)NC6=O)cc5)CC4)CC3)cc1CC2` [Example A21, 7-(4-((1-(4-(2,4-dioxotetrahydropyrimidin-1(2H)-yl)phenyl)piperidin-4-yl)methyl)piperazin-1-yl)-2-(4-phenoxyphenyl)-9,10-dihydro-4H-benzo[d]pyrazolo[1,5-a][1,3]diazepine-3-carboxamide] are 0.0621 µM and 0.00151 µM.
With `NC(=O)c1c(-c2ccc(Oc3ccccc3)cc2)nn2c1Nc1cc(C3CCN(CCC4CCN(c5ccc(N6CCC(=O)NC6=O)cc5)CC4)CC3)ccc1CC2` [Example A23, 6-(1-(2-(1-(4-(2,4-dioxotetrahydropyrimidin-1(2H)-yl)phenyl)piperidin-4-yl)ethyl)piperidin-4-yl)-2-(4-phenoxyphenyl)-9,10-dihydro-4H-benzo[d]pyrazolo[1,5-a] [1,3]diazepine-3-carboxamide], the IC50 in experiment [1] came to 0.445 µM. The compound further registered a 50% degradation concentration (DC50) in experiment [2] of 0.00923 µM.
With `NC(=O)c1c(-c2ccc(Oc3ccccc3)cc2)nn2c1Nc1ccc(OCCC3CCN(c4ccc(N5CCC(=O)NC5=O)cc4)CC3)cc1CC2` [Example A24, 7-(2-(1-(4-(2,4-dioxotetrahydropyrimidin-1(2H)-yl)phenyl)piperidin-4-yl)ethoxy)-2-(4-phenoxyphenyl)-9,10-dihydro-4H-benzo[d]pyrazolo[1,5-a][1,3]diazepine-3-carboxamide], in experiment [1], the IC50 came out at 0.235 µM. In addition, it took 0.00926 µM to reach half-maximal degradation in experiment [2] (DC50).
For `NC(=O)c1c(-c2ccc(Oc3ccccc3)cc2)nn2c1Nc1cc(OCCC3CCN(c4ccc(N5CCC(=O)NC5=O)cc4)CC3)ccc1CC2` [Example A25, 6-(2-(1-(4-(2,4-dioxotetrahydropyrimidin-1(2H)-yl)phenyl)piperidin-4-yl)ethoxy)-2-(4-phenoxyphenyl)-9,10-dihydro-4H-benzo[d]pyrazolo[1,5-a][1,3]diazepine-3-carboxamide], in that order: above 10 µM and 0.0249 µM.
On the same counts, the results for `NC(=O)c1c(-c2ccc(Oc3ccccc3)cc2)nn2c1Nc1ccc(CCC3CCN(c4ccc(NC5CCC(=O)NC5=O)cc4)CC3)cc1CC2` (centres unmarked) [Example A26, 7-(2-(1-(4-((2,6-dioxopiperidin-3-yl)amino)phenyl)piperidin-4-yl)ethyl)-2-(4-phenoxyphenyl)-9,10-dihydro-4H-benzo[d]pyrazolo[1,5-a][1,3] diazepine-3-carboxamide] are 0.283 µM and 0.016 µM.
For `NC(=O)c1c(-c2ccc(Oc3ccccc3)cc2)nn2c1Nc1cc(C3CCN(CC4CCN(c5ccc(N6CCC(=O)NC6=O)cc5)CC4)CC3)ccc1CC2` [Example A27, 6-(1-((1-(4-(2,4-dioxotetrahydropyrimidin-1(2H)-yl)phenyl)piperidin-4-yl)methyl)piperidin-4-yl)-2-(4-phenoxyphenyl)-9,10-dihydro-4H-benzo[d]pyrazolo[1,5-a][1,3]diazepine-3-carboxamide], in that order: 0.317 µM and 0.00673 µM.
